Source: patent US20200377568A1, “Novel IL-4-/IL-13-derived peptide compounds for the treatment or prevention of neurodegenerative or neuroinflammatory diseases” (Universitätsmedizin der Johannes Gutenberg-Universität Mainz, priority 2018, published 2020)
Entries after “also recorded” stand apart in the source; their conditions may differ. Peptide text beside a SMILES is read from it.

Tests used:
[1] = system: mouse embryonic fibroblasts (Mef); experiment: CellTiter-blue cell viability assay (ctb), fibroblasts; type: cell-based; conditions: Mef cells, increasing concentrations, FIG. 2A
Protocol: (§1) Toxicity was checked by subjecting mouse embryonic fibroblasts (Mef) and the hippocampal cell line HT22 to a CellTiter-blue cell viability assay (ctb).
(§2) Mouse embryonic fibroblasts (Mef) (Sigma-Aldrich) and hippocampal HT22 (ThermoScientific) cells were cultured according to the manufacturer's protocols. Ctb assays were performed according to the manufacturer's protocols (Promega).

[2] = system: hippocampal cell line HT22; experiment: CellTiter-blue cell viability assay (ctb), hippocampal cell line; type: cell-based; conditions: HT22 cells, increasing concentrations, FIG. 2B
Protocol: as §1, §2

[3] = system: experimental autoimmune encephalomyelitis (EAE) mice; experiment: EAE clinical score, treatment during the chronic phase; type: in vivo, mouse; conditions: chronic phase of EAE, vs PBS
Protocol: To test whether Link4 has similar effects to IL-4 in vivo, two pilot experiments were performed. In the first experiment (FIG. 3A), B16 mice were subjected to EAE and treated with IL-4, Link4, Ph8 and PBS (n=6-7 animals per group) via lumbar intrathecal injection directly into the cerebrospinal fluid (CSF) every other day for 14 days, in the chronic phase of the disease starting from day 5 after the first disease peak (grey bar). […] For better clinical translation, the treatment was then switched to nasal treatment with IL-4 and Link4 (FIG. 3B; 2 pooled experiments, n=15-16 per group). Nasally applied treatments can enter the brain through the cribriform plate, where olfactory nerve fibers cross through the bone, resulting in a connection between the roof of the nasal cavity and the brain (C. F. Xiao, F. J. Davis, B. C. Chauhan, K. L. Viola, P. N. Lacor, P. T. Velasco, W. L. Klein, and N. B. Chauhan, Brain transit and ameliorative effects of intranasally delivered anti-amyloid-beta oligomer antibody in 5XFAD mice. J Alzheimers Dis 35, 777-788 (2013)). Again, both IL-4 and Link4 treatments were beneficial.
For active EAE, female 9-10-weeks-old C57BI6 mice were immunized as previously described (M. Paterka, J. O. Voss, J. Werr, E. Reuter, S. Franck, T. Leuenberger, J. Herz, H. Radbruch, T. Bopp, V. Siffrin, and F. Zipp, Dendritic cells tip the balance towards induction of regulatory T cells upon priming in experimental autoimmune encephalomyelitis. J Autoimmun 67, 108-114 (2017)) by subcutaneous injection of 200 μg myelin oligodendrocyte […] 35-55 (MOG35-55) mixed with complete Freund adjuvant (CFA). Following the MOG35-55 immunization 400 ng pertussis toxin (PTX) was administered intraperitoneally at the day of immunizaton and after 24 h. Clinical signs were scored using the following parameters:
Treatment with rIL-4 (1 μg, Peprotech), Ph8 (1 μg, custom synthesized, Schafer N), Link4 (1 μg, custom synthesized, Schafer N) or vehicle (PBS) was performed during the chronic phase of the disease models by lumbar intrathecal injection (R. Lu and A. Schmidtko, Direct intrathecal drug delivery in mice for detecting in vivo effects of cGMP on pain processing. Methods Mol Biol 1020, 215-221 (2013)) or nasal application of IL-4 and Link4 was performed according to published procedures (C. F. Xiao, F. J. Davis, B. C. Chauhan, K. L. Viola, P. N. Lacor, P. T. Velasco, W. L. Klein, and N. B. Chauhan, Brain transit and ameliorative effects of intranasally delivered anti-amyloid-beta oligomer antibody in SXFAD mice. J Alzheimers Dis 35, 777-788 (2013)). Mice were pre-trained to avoid stress and held at a 45 degree angle to apply IL-4 solution (1 μg, Peprotech) to the nostrils using a pipette tip.

CD4+ T cells = experiment: TH2 differentiation of naive T cells; type: cell-based, mouse; conditions: different concentrations, FIG. 4B
Protocol: (§3) A-B: Effects of incubation with IL-4 and different concentrations of Link4 and Link13 on the differentiation of A: CD11b^+ bone marrow-derived macrophages (BMDMs) into F80^+CD206^+ cells, and B: CD4^+ T cells into Gata3^+ cells. C-D: FACS results for different populations of T cells and CD11b^+MHCII^+ monocytes/macrophages/microglia of immune cells isolated from C: spleen and D: central nervous system (CNS) of EAE mice treated with PBS, IL-4 or Link4.
(§4) In order to investigate whether Link4 and Link13 are able to modulate immune cells, in vitro assays were performed on bone marrow-derived macrophages (BDMBs) and on naïve T cells.
For the isolation of T lymphocytes 5-8 week old C57BL/6 mice were sacrificed by cervical dislocation and the spleens and lymph nodes (LN) were isolated and rubbed trough a 100 μm cell strainer into a 50 ml tube with washing medium (5% FCS, 1% P/S,1% HEPES in PBS). After washing, the cells were centrifuged for 5 min at 550 g at 4° C. To remove the red blood cells the […] was re-suspended in lysis buffer followed by centrifugation (5 min, 550 g, 4° C.). The cells were resuspended in MACS buffer and magnetic lymphocyte sorting was performed on ice, using the MidiMACS and QuadroMACS Seperators. A CD4 untouched and CD8 touched cell sort was performed a washing step in ml MACS buffer (5 min, 550 g, 4° C.). Cells were incubated with CD4 T cell biotin antibody cocktail (Miltenyi Biotec) in MACS buffer for 5 min at 4° C. Subsequently, anti-biotin microbeads and CD8 microbeads in MACS buffer was added. CD8 microbeads were added to reduce the possible contamination of CD8^+ lymphocytes. After 10 min of incubation at 4° C. the cells were washed again and resuspended in MACS buffer. MACS columns were pre equilibrated and topped with pre-separation filters (30 μm). A maximum of 300×10^6 cells were added to each column followed by 3 consecutive washing steps with MACS buffer. […] The purity of the magnetic cells sorts was assessed by comparing pre- and post-sort samples by flow cytometry. […]

[4] = system: CD11b+ bone marrow-derived macrophages (BMDMs); experiment: Differentiation of bone marrow-derived macrophages; type: cell-based, mouse; conditions: different concentrations, FIG. 4A
Protocol: as §3, §4
Murine BMDMs were isolated from adult C57BL/6 mice. The tibia and femur bones were flushed with sterile PBS and the bone marrow was collected in washing medium. After filtering the cell suspension trough a 100 μm nylon mesh, the cells were centrifuged (5 min, 550 g, 4° C.) and resuspended in mouse medium (10% FCS, 1% P/S, 1% L-glutamine, 0.1% β-mercaptoethanol, 1% HEPES in RPMI buffer). For the in vitro generation of BMDMs cells were plated in 6 well-plates and exposed to 20 ng/ml Macrophage […] (M-CSF) for 4 days. For the activation of the cells, Dexametason (5×10^−7M), LPS (10 μg/ml) and IL-4 (10 ng/ml) were added to the culture for the following 3 days.

[5] = cited from earlier work
[6] = system: human H9 cell-derived neurons; experiment: Growth assay for human H9 cells; type: cell-based; conditions: 50 ng/ml, 24 h, vs PBS, FIG. 7B
Text: B: Human Link4 induced neurite outgrowth in human H9 cell-derived neurons. Human neurons were cultivated with commercially available human neural stem cells (H9 cells), which were then differentiated to become neurons. […] The growth assay for human H9 cells described herein can be used to easily detect effects of the derivative peptides of the present invention on human neurons. In particular, this assay can be used to quickly test whether derivative peptides falling within the scope of the present invention are functional.
H9 human neural stem cells (H9 hNSCs) were purchased from Gibco and expanded according to the manufacturer's instructions. For consecutive neural differentiation hNSCs were harvested and reseeded on glass coverslips coated with Matrigel (High Concentration, Growth Factor Reduced; Corning; diluted 1:100 in Knockout DMEM [Gibco]) at a density of 25.000 cells/cm^2. hNSCs were allowed to rest for 48 hours in a basal neuronal medium (Neurobasal, 1X B27, 1x Glutamax, 1x Penicillin/Streptomycin, all from Gibco) before changing to EnStem A Neural Differentiation Medium (SCM017, Millipore) for a further 4 days. Cultures were treated with recombinant human IL-4 (Peprotech) or human Link4 at 50 ng/ml or equal volumes of PBS for 24 h. […]

[7] = lumbar intrathecal injection, 1 μg every other day for 14 days

## CC[C@H](C)[C@H](NC(=O)CNC(=O)[C@@H](NC(=O)[C@@H](NC(=O)[C@@H](N)CCC(=O)O)[C@@H](C)CC)[C@@H](C)CC)C(=O)NCC(=O)N1CCC[C@H]1C(=O)N[C@@H](CCCNC(=N)N)C(=O)N[C@@H](CC(C)C)C(=O)N[C@@H](Cc1ccccc1)C(=O)N[C@@H](CCCNC(=N)N)C(=O)N[C@@H](C)C(=O)N[C@@H](Cc1ccccc1)C(=O)N[C@@H](CCCNC(=N)N)C(=O)N[C@@H](CS)C(=O)N[C@@H](CO)C(=O)NCC(=O)N[C@@H](CO)C(=O)N[C@@H](CCCNC(=N)N)C(=O)N[C@@H](C)C(=O)N[C@@H](CO)C(=O)N[C@@H](CCCCN)C(=O)N[C@H](C(=O)N[C@@H](CC(C)C)C(=O)N[C@@H](CCCNC(=N)N)C(=O)N[C@H](C(=O)N[C@@H](Cc1ccccc1)C(=O)N[C@@H](Cc1ccc(O)cc1)C(=O)N[C@@H](CC(C)C)C(=O)O)[C@@H](C)CC)C(C)C [AvoC] (H-EIIGIGPRLFRAFRCSGSRASKVLRIFYL-OH; N-terminus and C-terminus assumed)
[1]
  toxic effects on fibroblasts (cell viability): no toxic effects
[2]
  toxic effects on hippocampal neurons (cell viability): no toxic effects

## interleukin-4 [IL-4]
[3]; [7]
  clinical score: ameliorate clinical symptoms; also recorded: significant improvement in the clinical score; also recorded: significant amelioration of the clinical score
[3]; lumbar intrathecal injection, 1 μg every other day for 14 days, listed as mouse full length IL-4
  clinical score: reducing disease symptoms
[3]; nasal application
  clinical score: equally effective; also recorded: significant improvement in the clinical score; also recorded: beneficial
CD4+ T cells
  differentiation of CD4+ T cells into Gata3+ cells: observed
[4]
  differentiation of CD11b+ BMDMs into F80+CD206+ cells: increased the expression of the differentiation markers F80 and CD206
[5]
  half-life in blood plasma: very short half-life

## LIRSELIEELSNITGSFITKLLSYTKQ (listed as Mus musculus) [Link13]
CD4+ T cells
  differentiation of CD4+ T cells into Gata3+ cells: did not take place
[4]
  differentiation of CD11b+ BMDMs into F80+CD206+ cells: did not occur

## WNRSEIIKTGSKTIMREKY (listed as Homo sapiens) [human Link4]
[3]; [7]
  clinical score: equally effective as mouse Link4
[6]
  neurite outgrowth: increase neurite outgrowth

B1: full length IL-4: recombinant human IL-4 (Peprotech) used on human H9 cell-derived neurons (protein, UniProt P05112 25-153, looked up)
Interleukin-4: HKCDITLQEIIKTLNSLTEQKTLCTELTVTDIFAASKNTTEKETFCRAATVLRQFYSHHEKDTRCLGATAQQFHRHKQLIRFLKRLDRNLWGLAGLNSCPVKEANQSTLENFLERLKTIMREKYSKCSS
[6]
  neurite outgrowth: increase neurite outgrowth
